We go through 1 compound from patent US11572590B2, “Methods for evaluating tumor cell spheroids using 3D microfluidic cell culture device” (Dana-Farber Cancer Institute, Inc., priority 2017, dated 2023).

Where two headings read alike, the source gives them in different places.

Common to all, as to assay: SelectScreen Kinase Profiling, single point inhibition and IC50 for off-target kinases
What all share (type): biochemical

In experiment [1] the target is T1, off-target kinases (Homo sapiens, UniProt Q6PHR2).
T1 sequence (Q6PHR2 1-472): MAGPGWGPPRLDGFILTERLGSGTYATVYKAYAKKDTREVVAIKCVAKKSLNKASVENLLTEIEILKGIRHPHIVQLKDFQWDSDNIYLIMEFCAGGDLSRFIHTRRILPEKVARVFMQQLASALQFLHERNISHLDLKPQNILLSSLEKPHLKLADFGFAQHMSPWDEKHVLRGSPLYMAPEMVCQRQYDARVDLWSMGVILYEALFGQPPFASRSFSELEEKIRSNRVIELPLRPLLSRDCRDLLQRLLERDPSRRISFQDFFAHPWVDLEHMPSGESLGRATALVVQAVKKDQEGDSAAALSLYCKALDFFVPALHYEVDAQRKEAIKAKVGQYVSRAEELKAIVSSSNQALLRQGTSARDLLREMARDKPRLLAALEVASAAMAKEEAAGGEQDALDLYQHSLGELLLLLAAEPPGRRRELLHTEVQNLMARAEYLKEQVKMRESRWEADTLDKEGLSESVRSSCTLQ
To be noted: ULK3, LanthaScreen Binding. On the technique in general: In TR-FRET formats the signal depends on donor and acceptor labels being close together.

In experiment [2] the target is off-target kinases (Homo sapiens, UniProt Q13554). Particulars: CAMK2B (CaMKII beta), ZLYTE, ATP Km app.
Chain of off-target kinases (Homo sapiens, UniProt Q13554) (Q13554 whole entry): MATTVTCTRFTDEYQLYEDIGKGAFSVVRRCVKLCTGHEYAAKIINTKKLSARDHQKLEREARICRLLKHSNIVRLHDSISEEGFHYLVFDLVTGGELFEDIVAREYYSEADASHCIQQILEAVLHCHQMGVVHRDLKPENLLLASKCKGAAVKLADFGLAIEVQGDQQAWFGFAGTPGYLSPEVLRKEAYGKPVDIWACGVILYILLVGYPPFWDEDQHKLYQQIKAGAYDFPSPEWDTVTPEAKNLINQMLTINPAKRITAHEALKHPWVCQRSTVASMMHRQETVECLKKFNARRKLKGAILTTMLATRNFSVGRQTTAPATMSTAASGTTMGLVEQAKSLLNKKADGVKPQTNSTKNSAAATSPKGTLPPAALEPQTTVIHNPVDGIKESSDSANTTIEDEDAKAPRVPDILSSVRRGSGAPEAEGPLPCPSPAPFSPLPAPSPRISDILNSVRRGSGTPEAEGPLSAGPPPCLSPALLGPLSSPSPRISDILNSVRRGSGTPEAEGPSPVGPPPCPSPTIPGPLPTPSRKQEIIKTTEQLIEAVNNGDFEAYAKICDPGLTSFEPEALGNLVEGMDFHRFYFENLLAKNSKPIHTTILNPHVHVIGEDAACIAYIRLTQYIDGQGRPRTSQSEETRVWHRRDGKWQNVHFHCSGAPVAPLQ
The target in experiment [3] is T2, off-target kinases (Homo sapiens, UniProt Q8TD08).
T2 sequence (Q8TD08 1-544): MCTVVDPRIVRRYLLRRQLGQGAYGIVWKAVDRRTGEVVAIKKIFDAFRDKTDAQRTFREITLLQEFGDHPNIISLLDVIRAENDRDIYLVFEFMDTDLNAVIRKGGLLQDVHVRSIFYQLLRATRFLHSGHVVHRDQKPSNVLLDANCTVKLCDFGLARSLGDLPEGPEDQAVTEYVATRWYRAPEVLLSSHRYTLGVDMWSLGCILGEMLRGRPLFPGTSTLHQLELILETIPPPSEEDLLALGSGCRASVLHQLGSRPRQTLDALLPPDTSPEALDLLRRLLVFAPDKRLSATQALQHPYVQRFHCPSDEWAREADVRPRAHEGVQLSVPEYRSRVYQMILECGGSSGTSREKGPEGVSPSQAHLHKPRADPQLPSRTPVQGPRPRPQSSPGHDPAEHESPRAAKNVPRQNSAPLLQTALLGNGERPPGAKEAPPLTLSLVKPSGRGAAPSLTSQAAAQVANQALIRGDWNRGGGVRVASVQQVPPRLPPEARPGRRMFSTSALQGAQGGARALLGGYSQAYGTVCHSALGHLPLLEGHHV
Particulars: MAPK15 (ERK7), LanthaScreen Binding.

Experiment [4] has as its target off-target kinases (Homo sapiens, UniProt Q9UEW8). Particulars: STK39 (STLK3), LanthaScreen.

A word on the inhibition: it is the change of the read-out against control, counted positive when it falls. For the compound `N#Cc1cc(-c2ncnc(Nc3ccc(N4CCN(C5COC5)CC4)cc3)n2)ccc1OC1CCOCC1` [Compound 1, 5-(4-((4-(4-(oxetan-3-yl)piperazin-1-yl)phenyl)amino)-1,3,5-triazin-2-yl)-2-((tetrahydro-2H-pyran-4-yl)oxy)benzonitrile], the inhibition in experiment [1] (read-out: % Inhibition 1) amounted to 101%; in experiment [1] (read-out: % Inhibition 2), 104%; in experiment [1] (read-out: % Inhibition Avg), 102%; in experiment [2] (read-out: % Inhibition 1), 11%; in experiment [2] (read-out: % Inhibition 2), 8%; in experiment [2] (read-out: % Inhibition Avg), 10%. Moreover, the inhibition in experiment [3] (read-out: % Inhibition 1) worked out at 100%; in experiment [3] (read-out: % Inhibition 2) it was 100%; in experiment [3] (read-out: % Inhibition Avg) it was 100%; in experiment [4] (read-out: % Inhibition 1), 10%; in experiment [4] (read-out: % Inhibition 2), 9%; in experiment [4] (read-out: % Inhibition Avg), 10%.
